From US8387699B2, “Green coal bed methane fracturing fluid compositions, methods of preparation and methods of use” (Calfrac Well Services Ltd., priority 2008, dated 2013)

Test system: Vibrio fischeri NRRL-B-11177
Test: Microtox™ toxicity test (light emission of bioluminescent bacterium)
Type: cell-based
Details: constituent at the loading given; for EC50 Result (%): normally 50% light reduction over 15 minute at 15°C
Description: Under the Microtox™ protocols, the viability of known bacterial cultures is measured within a sample to produce a numeric result as well as a “pass/fail” indication.
The test is performed by rehydrating freeze dried cultures of the organism, supplied as the Microtox™ reagent and determining the initial light output of homogenized bacterial suspensions. Aliquots of osmotically adjusted sample and sample dilutions are added to the bacterial suspension, and light measurements are made at specific intervals (generally at 5 or 15 minutes) after exposure to test samples. The diluent control (blank) is used to correct time-dependant change in light output.
The Microtox™ test endpoint is measured as the effective or inhibitory concentration of a test sample that reduces light emission by a specific amount under defined conditions of time and temperature. Normally, this is expressed as an ECSO(15) or ICSO(15) which is the effective concentration or inhibitory concentration of a sample that reduces light emission of the test organism by 50% over a 15 minute test period at 15°C.
The EC50 or IC50 is calculated by log linear plotting of Concentration (C) vs percent Light Decrease (percent A), or more precisely by plotting Gamma Q (which is the corrected ratio of the amount of light lost to the amount of light remaining) versus Concentration on a log-log graph. Either a hand calculator or computer program data reduction systems may be used to calculate Gamma and the corresponding EC50 or ICSO values.
Thus, the desired loading for a fracturing fluid is determined and the viscosifier diluted to that loading in water and subjected to standardized Microtox™ testing.

Compound	Pass/Fail	EC50 Result (%)
O=CO [0.002 wt % formic acid, formic acid]	Pass (>75% EC50 result is required for pass)	>91%
[Cl-].[K+] [4 wt % KCl water, KCl]	–	>91%
C[Si]1(C)O[Si](C)(C)O[Si](C)(C)O[Si](C)(C)O1 [octamethylcyclotetrasiloxane]	Pass (>75% EC50 result is required for pass)	82%
hemicellulase enzyme [hemicellulase enzyme (0.02 wt %)]	–	>91%
